Assay results reported in patent US7223865B2, “Chromogenic compounds, and use thereof as enzyme substrates” (Biomerieux, priority 2003, dated 2007).

Tests used:
Format in all cases: cell-based
[1] = system: Enterococcus faecalis (117); test: L-alanine-aminopeptidase activity on gelled medium, Example 4; conditions: 0.3 g/l, after the addition of HCl
Procedure: (§1) A gelled medium comprising L-Ala-2-MeOAPA or L-Ala-2,5-diMeOAPA is prepared as follows: 46.37 g of Columbia agar are added to 1 liter of distilled water and then autoclaved. This reaction medium is separated into two media of equivalent volume. Each of these media comprises, respectively: 0.3 g/l of L-Ala-2-MeOAPA, introduced by means of a stock solution in DMSO, and 0.3 g/l of L-Ala-2,5-diMeOAPA, also introduced by means of a stock solution in DMSO. Microorganisms derived from the applicant's collection were seeded onto each of the media, by delimitation as three dials, using a suspension at 0.5 McFarland. […] The color of these colonies and also the intensity of this color were noted after the addition of HCl.

[2] = system: Klebsiella pneumoniae (023); test: as above; conditions: 0.3 g/l, after the addition of HCl
Procedure: as §1

[3] = system: Streptococcus agalactiae (001); test: as above; conditions: 0.3 g/l, after the addition of HCl
Procedure: as §1

[4] = system: Enterobacter cloacae (061); test: as above; conditions: 0.3 g/l, after the addition of HCl
Procedure: as §1

Listeria innocua (036) = test: as above; conditions: 0.3 g/l, after the addition of HCl
Procedure: as §1

[5] = system: Staphylococcus aureus (035); test: as above; conditions: 0.3 g/l, after the addition of HCl
Procedure: as §1

Proteus mirabilis (037) = test: as above; conditions: 0.3 g/l, after the addition of HCl
Procedure: as §1

Candida albicans (077) = test: as above; conditions: 0.3 g/l, after the addition of HCl
Procedure: as §1

Escherichia coli (032) = test: as above; conditions: 0.3 g/l, after the addition of HCl
Procedure: (§2) A gelled medium comprising L-Ala-2-MeOAPA or L-Ala-2,5-diMeOAPA is prepared as follows: 46.37 g of Columbia agar are added to 1 liter of distilled water and then autoclaved. This reaction medium is separated into two media of equivalent volume. Each of these media comprises, respectively: 0.3 g/l of L-Ala-2-MeOAPA, introduced by means of a stock solution in DMSO, and 0.3 g/l of L-Ala-2,5-diMeOAPA, also introduced by means of a stock solution in DMSO. Microorganisms derived from the applicant's collection were seeded onto each of the media, by delimitation as three dials, using a suspension at 0.5 McFarland. The dishes were incubated at 37° C. for 24 hours. The color of these colonies and also the intensity of this color were noted after the addition of HCl.

Citrobacter koseri (012) = test: as above; conditions: 0.3 g/l, after the addition of HCl
Procedure: as §2

Listeria innocua = test: L-alanine-aminopeptidase activity on gelled medium, Example 1; conditions: 0.3 g/l, 24 hours
Procedure: (§3) A gelled medium comprising L-alanyl-9-(4-amino-styryl)acridine (hereinafter referred to as L-Ala-4-ASA) or L-alanyl-aminophenylacridine (hereinafter referred to as L-Ala-APA) is prepared as follows: 46.37 g of Columbia agar are added to 1 liter of distilled water and then autoclaved. This reaction medium is separated into two media of equivalent volume. Each of these media comprises, respectively: 0.3 g/l of L-Ala-4-ASA provided by means of the stock solution in DMSO, and 0.3 g/l of L-Ala-APA also provided by means of a stock solution in DMSO.
(§4) Microorganisms derived from the applicant's collection were seeded onto each of the media, by delimitation as three dials, using a suspension at 0.5 McFarland. The dishes were incubated at 37° C. for 24 hours. The colonies formed were examined visually after incubation for 24 hours. The color of these colonies was noted before and after addition of a drop of hydrochloric acid.

Streptococcus agalactiae = test: as above; conditions: 0.3 g/l, 24 hours
Procedure: as §3, §4

Citrobacter koseri = test: as above; conditions: 0.3 g/l, 24 hours
Procedure: as §3, §4

Enterobacter cloacae = test: as above; conditions: 0.3 g/l, 24 hours
Procedure: as §3, §4

Staphylococcus aureus = test: as above; conditions: 0.3 g/l, 24 hours
Procedure: as §3, §4

Klebsiella pneumoniae = test: as above; conditions: 0.3 g/l, 24 hours
Procedure: as §3, §4

Escherichia coli = test: as above; conditions: 0.3 g/l, 24 hours
Procedure: as §3, §4

Proteus mirabilis = test: as above; conditions: 0.3 g/l, 24 hours
Procedure: as §3, §4

Candida albicans = test: as above; conditions: 0.3 g/l, 24 hours
Procedure: as §3, §4

Enterococcus faecalis = test: as above; conditions: 0.3 g/l, 24 hours
Procedure: as §3, §4

Question: For COc1cc(-c2c3ccccc3nc3ccccc23)ccc1NC(=O)[C@H](C)N [L-Ala-2-MeOAPA, L-alanyl-2-methoxy-aminophenylacridine], which Color ([1]; 24 H) is on record?
Answer: inhibited

Question: What about the Color ([1]; 48 h) of the same molecule?
Answer: inhibited

Question: And the Color ([2]; 24 H)?
Answer: pink

Question: What about the Intensity ([2]; 24 H) of the same molecule?
Answer: 3

Question: And the Color ([2]; 48 h)?
Answer: pink

Question: And the Intensity ([2]; 48 h)?
Answer: 3.5

Question: And the Color ([3]; 24 H)?
Answer: inhibited

Question: What about the Color ([3]; 48 h) of the same molecule?
Answer: inhibited

Question: And the Color ([4]; 24 H)?
Answer: pink

Question: What about the Intensity ([4]; 24 H) of the same molecule?
Answer: 2

Question: What about the Color ([4]; 48 h) of the same molecule?
Answer: pink

Question: And the Intensity ([4]; 48 h)?
Answer: 2

Question: And the Color (Listeria innocua (036); 24 H)?
Answer: colorless*

Question: And the Intensity (Listeria innocua (036); 24 H)?
Answer: 0

Question: What about the Color (Listeria innocua (036); 48 h) of the same molecule?
Answer: colorless*

Question: What about the Intensity (Listeria innocua (036); 48 h) of the same molecule?
Answer: 0

Question: And the Color ([5]; 24 H)?
Answer: colorless*

Question: And the Intensity ([5]; 24 H)?
Answer: 0

Question: What about the Color ([5]; 48 h) of the same molecule?
Answer: colorless*

Question: What about the Intensity ([5]; 48 h) of the same molecule?
Answer: 0

Question: And the Color (Proteus mirabilis (037); 24 H)?
Answer: orange

Question: What about the Intensity (Proteus mirabilis (037); 24 H) of the same molecule?
Answer: 1

Question: And the Color (Proteus mirabilis (037); 48 h)?
Answer: orange

Question: And the Intensity (Proteus mirabilis (037); 48 h)?
Answer: 1.5

Question: And the Color (Candida albicans (077); 24 H)?
Answer: inhibited

Question: What about the Color (Candida albicans (077); 48 h) of the same molecule?
Answer: inhibited

Question: What about the Color (Escherichia coli (032); 24 H) of the same molecule?
Answer: orange

Question: What about the Intensity (Escherichia coli (032); 24 H) of the same molecule?
Answer: 0.5

Question: And the Color (Escherichia coli (032); 48 h)?
Answer: pink

Question: What about the Intensity (Escherichia coli (032); 48 h) of the same molecule?
Answer: 3.5

Question: What about the Color (Citrobacter koseri (012); 24 H) of the same molecule?
Answer: orange

Question: What about the Intensity (Citrobacter koseri (012); 24 H) of the same molecule?
Answer: 2

Question: And the Color (Citrobacter koseri (012); 48 h)?
Answer: pink

Question: What about the Intensity (Citrobacter koseri (012); 48 h) of the same molecule?
Answer: 3.5

Question: Which color of colonies (Listeria innocua; with HCl) does the source give for C[C@H](N)C(=O)Nc1ccc(C=Cc2c3ccccc3nc3ccccc23)cc1 [L-Ala-4-ASA, L-alanyl-9-(4-aminostyryl)acridine] here?
Answer: colorless

Question: What about the color of colonies (Listeria innocua; without HCl) of the same molecule?
Answer: colorless

Question: What about the color of colonies (Streptococcus agalactiae; with HCl) of the same molecule?
Answer: colorless

Question: And the color of colonies (Streptococcus agalactiae; without HCl)?
Answer: colorless

Question: And the color of colonies (Citrobacter koseri; with HCl)?
Answer: gray-mauve

Question: And the color of colonies (Citrobacter koseri; without HCl)?
Answer: colorless

Question: What about the color of colonies (Enterobacter cloacae; with HCl) of the same molecule?
Answer: gray-mauve

Question: And the color of colonies (Enterobacter cloacae; without HCl)?
Answer: colorless

Question: What about the color of colonies (Staphylococcus aureus; with HCl) of the same molecule?
Answer: colorless

Question: What about the color of colonies (Staphylococcus aureus; without HCl) of the same molecule?
Answer: colorless

Question: And the color of colonies (Klebsiella pneumoniae; with HCl)?
Answer: gray-mauve

Question: And the color of colonies (Klebsiella pneumoniae; without HCl)?
Answer: colorless

Question: And the color of colonies (Escherichia coli; with HCl)?
Answer: gray-mauve

Question: What about the color of colonies (Escherichia coli; without HCl) of the same molecule?
Answer: colorless

Question: And the color of colonies (Proteus mirabilis; with HCl)?
Answer: gray-mauve

Question: What about the color of colonies (Proteus mirabilis; without HCl) of the same molecule?
Answer: colorless

Question: And the color of colonies (Candida albicans; with HCl)?
Answer: colorless

Question: And the color of colonies (Candida albicans; without HCl)?
Answer: colorless

Question: What about the color of colonies (Enterococcus faecalis; with HCl) of the same molecule?
Answer: colorless

Question: What about the color of colonies (Enterococcus faecalis; without HCl) of the same molecule?
Answer: colorless

Question: Which results are given for C[C@H](N)C(=O)Nc1ccc(-c2c3ccccc3nc3ccccc23)cc1 [L-Ala-APA]?
Answer: color of colonies (Listeria innocua; with HCl): colorless; color of colonies (Listeria innocua; without HCl): colorless; color of colonies (Streptococcus agalactiae; with HCl): colorless; color of colonies (Streptococcus agalactiae; without HCl): colorless; color of colonies (Citrobacter koseri; with HCl): mauve; color of colonies (Citrobacter koseri; without HCl): colorless; color of colonies (Enterobacter cloacae; with HCl): mauve; color of colonies (Enterobacter cloacae; without HCl): colorless; color of colonies (Staphylococcus aureus; with HCl): colorless; color of colonies (Staphylococcus aureus; without HCl): colorless; color of colonies (Klebsiella pneumoniae; with HCl): mauve; color of colonies (Klebsiella pneumoniae; without HCl): colorless; color of colonies (Escherichia coli; with HCl): pale mauve; color of colonies (Escherichia coli; without HCl): colorless; color of colonies (Proteus mirabilis; with HCl): very pale-; color of colonies (Proteus mirabilis; without HCl): colorless; color of colonies (Candida albicans; with HCl): Colorless; color of colonies (Candida albicans; without HCl): colorless; color of colonies (Enterococcus faecalis; with HCl): colorless; color of colonies (Enterococcus faecalis; without HCl): colorless
